Source: paper PMC9785280, “Synthesis, Antiproliferative Evaluation and QSAR Analysis of Novel Halogen- and Amidino-Substituted Benzothiazoles and Benzimidazoles” (International Journal of Molecular Sciences, 2022)

How the values were obtained:
human fibroblasts (BJ) = experiment: MTT antiproliferative assay, normal BJ fibroblasts; type: cell-based; details: Homo sapiens, Fibroblast, 72 h, MTT, mean ± SD of three independent experiments; normal cells
Description: (§1) The growth inhibition activity was assessed according to the slightly modified procedure performed at the National Cancer Institute, Developmental Therapeutics Program.
(§2) Examined compounds were dissolved in DMSO (1 × 10^−2 M). The experiments were carried out on seven human tumor cell lines and two normal cell lines. The following cell lines were used: HeLa (human cervical adenocarcinoma; purchased from ATCC), CaCo-2 (human colorectal adenocarcinoma), HuT78 (T-cell lymphoma), THP-1 (acute monocytic leukemia), SW620 (colorectal adenocarcinoma, metastatic), MDA-MB-231 (human breast adenocarcinoma), HL60 (promyelocytic leukemia cell line), foreskin fibroblast cells (BJ) and MDCK1 (Madine–Darby canine kidney fibroblast like cells). MDCK1 cells were used between 24 and 26 passages.
(§3) Adherent cells were cultured in the Dulbecco’s modified Eagle medium—DMEM (Gibco, EU) supplemented with 10 % heat-inactivated fetal bovine serum (FBS, Gibco, EU), 2 mM glutamine, and 100 U/0.1 mg penicillin/streptomycin. Cells on suspension were cultured in RPMI 1640 (Gibco, EU) medium supplemented with 10 % FBS (Gibco, EU), 2 mM glutamine, 1 mM sodium pyruvate, 10 mM HEPES. Cells were grown in humidified atmosphere under the conditions of 37 °C/5% of CO2 gas in the CO2 incubator (IGO 150 CELLlife^TM, JOUAN, Thermo Fisher Scientific, Waltham, MA, USA). A erythrosin B (Sigma-Aldrich, St. Louis, MO, USA) dye exclusion method was used to assess cell viability before plating.
(§4) Adherent cells (HeLa, CaCo-2, MCF-7 and MDCK-1) were plated in 96-well flat bottom plates (Greiner, Frickenhausen, Austria) at a concentration of 2 × 10^4 cells/mL. Suspension cells (THP-1 and HuT78) were plated in 96-well microtiter plates (Sarstead, Newton, USA) at a concentration of 1 × 10^5 cells/mL. Twenty-four hours later, cells were treated with test agents in […] 10-fold dilutions ([…] to 10^−4 M) and incubated for further 72 h. Working dilutions were freshly prepared on the day of testing. The solvent was also tested for eventual inhibitory activity by adjusting its concentration to be the same as in working concentrations. After 72 h of incubation, the cell growth rate was evaluated by performing the MTT assay, which detects dehydrogenase activity in viable cells. For this purpose, upon completion of the incubation period, growth medium was discarded and 50 μL of MTT was added to each well at a concentration of 5 mg/mL. After four hours of incubation at 37 °C, water insoluble MTT-formazan crystals were dissolved in 150 μL of dimethyl-sulfoxide (DMSO) for adherent cells, and in 10 % SDS with 0.01 M/L HCl for cells grown in suspension. The absorbance (OD, optical density) was measured on a microplate reader (iMark, BIO RAD, Hercules, CA, USA) at 595 nm.
(§5) Percent of life cells was calculated as follows: % = OD (sample)–OD (background)/OD (control)–OD (background) × 100.
(§6) Optical density (OD) of background for adherent cells is the OD of MTT solution and DMSO; OD (background) for suspension cells is OD of the culture medium with MTT and 10% SDS with 0.01 M/L HCl; OD (control) is the OD of the cells growth without tested compounds.
(§7) Calculation of GI50 value curves and QC analysis is performed by using the Excel tools and GraphPadPrism software (La Jolla, CA), v. 5.03. Briefly, individual concentration effect curves are generated by plotting the logarithm of the concentration of tested compounds(X) vs. corresponding percent inhibition values (Y) using least squares fit. The best fit GI50 values are calculated using Log (inhibitor) versus normalized response—Variable slope equation, where Y Ľ 100/(1 ţ 10 ((LogIC50 _ X) * HillSlope)). QC criteria parameters (Z0, S:B, R2, HillSlope) were checked for every GI50 curve.

[1] = system: HuT78 (T-cell lymphoma) cells; experiment: MTT antiproliferative assay, HuT78; type: cell-based, human; details: for IC50: Homo sapiens, HuT78, 72 h, 72 h, MTT, mean ± SD of three independent experiments; for SI (BJ) HuT78: SI = IC50 BJ / IC50 HuT78; for SI (MDCK) HuT78: SI = IC50 MDCK1 / IC50 HuT78
Description: as §1, §2, §3, §4, §5, §6, §7

[2] = system: MDCK1 (Madin–Darby canine kidney) cells; experiment: MTT antiproliferative assay, non-tumor MDCK1 cells; type: cell-based; details: Canis lupus familiaris, MDCK1, 72 h, mean ± SD of three independent experiments, normal cells
Description: as §1, §2, §3, §4, §5, §6, §7

[3] = system: CaCo-2 (colon adenocarcinoma) cells; experiment: MTT antiproliferative assay, CaCo-2; type: cell-based, human; details: for IC50: Homo sapiens, Caco-2, 72 h, MTT, mean ± SD of three independent experiments; for SI (BJ) CaCo-2: SI = IC50 BJ / IC50 CaCo-2
Description: as §1, §2, §3, §4, §5, §6
as §7, with “The best fit GI50 values are calculated using Log (inhibitor) versus normalized response—Variable slope equation, where Y Ľ 100/(1 ţ 10 ((LogIC50 _ X) * HillSlope)).” left out

[4] = system: HeLa (cervical adenocarcinoma) cells; experiment: MTT antiproliferative assay, HeLa; type: cell-based; details: Homo sapiens, 72 h, mean ± SD of three independent experiments
Description: as §1, §2, §3, §4, §5, §6, §7

Row | SMILES | IC50 (human fibroblasts (BJ)) [µM] | IC50 [1] [µM] | SI (BJ) HuT78 [1] | melting point [°C] | IC50 [2] [µM] | IC50 [3] [µM] | IC50 [4] [µM] | SI (BJ) CaCo-2 [3] | SI (MDCK) CaCo-2 ([3]; SI = IC50 MDCK1 / IC50 CaCo-2) | SI (MDCK) HuT78 [1]
1 | O=C(COc1ccc(-c2nc3ccc(F)cc3s2)cc1F)c1ccccc1 [16b, 6-Fluoro-2-(3-fluoro-4-(2-oxo-2-phenylethoxy)phenyl)benzothiazole] | > 100 | 69.8 ± 15.5 | 1.43 | 148 to 152 | 25.8 ± 9.4 | 89.3 ± 15.8 | > 100 | – | – | –
2 | COc1cc(-c2nc3ccc(F)cc3s2)ccc1OCC(=O)c1ccccc1 [16c, 6-Fluoro-2-(3-methoxy-4-(2-oxo-2-phenylethoxy)phenyl)benzothiazole] | > 100 | > 100 | – | 178 to 181 | 6.8 ± 6.2 | > 100 | > 100 | – | – | –
3 | O=C(COc1ccc(-c2nc3ccccc3s2)cc1)c1ccccc1 [17a, 2-(4-(2-Oxo-2-phenylethoxy)phenyl)benzothiazole] | > 100 | > 100 | – | 150 to 155 | > 100 | > 100 | > 100 | – | – | –
4 | O=C(COc1ccc(-c2nc3ccccc3s2)cc1F)c1ccccc1 [17b, 2-(3-Fluoro-4-(2-oxo-2-phenylethoxy)phenyl)benzothiazole] | > 100 | > 100 | – | 174 to 177 | > 100 | > 100 | > 100 | – | – | –
5 | COc1cc(-c2nc3ccccc3s2)ccc1OCC(=O)c1ccccc1 [17c, 2-(3-Methoxy-4-(2-oxo-2-phenylethoxy)phenyl)benzothiazole] | > 100 | > 100 | – | 184 to 186 | 78 ± 27.8 | > 100 | > 100 | – | – | –
6 | Fc1cc(-c2nc3ccc(Cl)cc3s2)ccc1OCc1ccccn1 [18b] | > 100 | > 100 | – | 211 to 215 | 29.8 ± 17.7 | > 100 | > 100 | – | – | –
7 | COc1cc(-c2nc3ccc(Cl)cc3s2)ccc1OCc1ccccn1 [18c] | > 100 | 55.6 ± 34.6 | – | 173 to 176 | 41.4 ± 8.1 | > 100 | 67.3 ± 7.8 | – | – | –
8 | Fc1ccc2nc(-c3ccc(OCc4ccccn4)cc3)sc2c1 [19a] | > 100 | > 100 | – | 165 to 170 | 1.1 ± 0.2 | > 100 | > 100 | – | – | –
9 | Fc1ccc2nc(-c3ccc(OCc4ccccn4)c(F)c3)sc2c1 [19b] | > 100 | > 100 | – | 190 to 195 | 16.3 ± 11.5 | > 100 | > 100 | – | – | –
10 | COc1cc(-c2nc3ccc(F)cc3s2)ccc1OCc1ccccn1 [19c] | > 100 | > 100 | – | 152 to 156 | 1.1 ± 0.2 | > 100 | > 100 | – | – | –
11 | c1ccc(COc2ccc(-c3nc4ccccc4s3)cc2)nc1 [20a, 2-(4-(Pyridin-2-ylmethoxy)phenyl)benzothiazole] | > 100 | > 100 | – | 132 to 136 | 65.7 ± 11.8 | > 100 | > 100 | – | – | –
12 | Fc1cc(-c2nc3ccccc3s2)ccc1OCc1ccccn1 [20b] | > 100 | > 100 | – | 136 to 142 | 94.2 ± 18.4 | 28.7 ± 16.7 | > 100 | 3.48 | 3.28 | –
13 | COc1cc(-c2nc3ccccc3s2)ccc1OCc1ccccn1 [20c] | > 100 | 64.7 ± 11.3 | 1.55 | 110 to 115 | 85.9 ± 15.7 | 89.2 ± 16.8 | > 100 | 1.12 | – | 1.33
14 | Clc1ccc2nc(-c3ccc(OCc4c[nH]nn4)cc3)sc2c1 [21a, 6-Chloro-2-(4-((1H-1,2,3-triazol-4-yl)methoxy)phenyl)benzothiazole] | > 100 | 6.8 ± 6.2 | 14.7 | 220 to 223 | 12.6 ± 4.8 | > 100 | > 100 | – | – | 1.85
15 | Fc1cc(-c2nc3ccc(Cl)cc3s2)ccc1OCc1c[nH]nn1 [21b, 6-Chloro-2-(3-fluoro-4-((1H-1,2,3-triazol-4-yl)methoxy)phenyl)benzothiazole] | 84.1 ± 24.7 | 3.6 ± 3.1 | 23.36 | 205 to 209 | 10.1 ± 4.5 | > 100 | > 100 | – | – | 2.8
16 | COc1cc(-c2nc3ccc(Cl)cc3s2)ccc1OCc1c[nH]nn1 [21c, 6-Chloro-2-(3-methoxy-4-((1H-1,2,3-triazol-4-yl)methoxy)phenyl)benzothiazole] | > 100 | 24.3 ± 6.5 | 4.11 | 183 to 188 | 43.2 ± 12.4 | > 100 | > 100 | – | – | 1.78
17 | Fc1ccc2nc(-c3ccc(OCc4c[nH]nn4)cc3)sc2c1 [22a, 6-Fluoro-2-(4-((1H-1,2,3-triazol-4-yl)methoxy)phenyl)benzothiazole] | > 100 | 14.9 ± 10.8 | 6.71 | 212 to 215 | 1.1 ± 0.2 | 73.5 ± 4.5 | 54.5 ± 29.4 | – | – | –
18 | Fc1ccc2nc(-c3ccc(OCc4c[nH]nn4)c(F)c3)sc2c1 [22b, 6-Fluoro-2-(3-fluoro-4-((1H-1,2,3-triazol-4-yl)methoxy)phenyl)benzothiazole] | 86.4 ± 20.9 | 9.1 ± 2.8 | 9.49 | 177 to 180 | 1 | > 100 | 50.6 ± 19.3 | – | – | –
19 | COc1cc(-c2nc3ccc(F)cc3s2)ccc1OCc1c[nH]nn1 [22c, 6-Fluoro-2-(3-methoxy-4-((1H-1,2,3-triazol-4-yl)methoxy)phenyl)benzothiazole] | > 100 | 38.1 ± 23.4 | 2.62 | 196 to 199 | 0.7 ± 0.3 | > 100 | > 100 | – | – | –
20 | c1ccc2sc(-c3ccc(OCc4c[nH]nn4)cc3)nc2c1 [23a, 2-(4-((1H-1,2,3-triazol-4-yl)methoxy)phenyl)benzothiazole] | > 100 | 19 ± 4 | 5.26 | 204 to 207 | 40.7 ± 5.7 | 95.6 ± 6.6 | 52.4 ± 18.4 | – | – | 2.14
